# Results from patent US10085449B2, “N-[1-((6-chloropyridin-3-yl)methyl)pyridin-2(1H)-ylidene]-2,2,2- trifluoroacetamide for control of agricultural/horticultural pests” (priority 2010, dated 2018).
# Like-named read-outs stand apart in the source and are kept apart here.
# Key:
# [1] = tested on: white-backed rice planthopper; test: White-backed rice planthopper control test (foliar application); type: in vivo; details: 100 ppm foliar application, second-instar larvae on rice seedlings, 4 days after release
# Experimental: (§1) Rice seedlings grown in pots were subjected to the foliar application of solutions of the inventive compounds at a predetermined concentration prepared to 50% acetone/water (containing 0.05% Tween 20). The treated seedlings were air dried, following which second-instar larvae were released onto the seedlings. The seedlings and larvae were then held in an incubation chamber at 25° C. (16-hour period of light, 8-hour dark period). Four days after released, the numbers of live and dead insects were counted, and the mortality was calculated from the following formula. This was a two-replication test. Mortality (%)=[number of dead insects/(number of live insects+number of dead insects)]×100
# [2] = tested on: canine heartworm microfilariae; test: Effects on canine heartworm (motility of microfilariae); design: key: At least two-thirds of the heartworms died; B: Substantially all the heartworms were affected in some way, or at least one-third died; C: No influence, or less than one-third of the heartworms died; details: 3.13 ppm in RPMI1640 liquid culture medium, 37° C., observed for 48 hours
# Experimental: The activities of the compounds were evaluated based on changes in the motility of microfilariae in canine heartworm. The respective compounds were dissolved in a RPMI1640 liquid culture medium to a concentration of 3.13 ppm, following which about 20 canine heartworm microfilariae were placed in each culture fluid and cultured at 37° C.
# Criteria A: At least two-thirds of the heartworms died • B: Substantially all the heartworms were affected in some way, or at least one-third died • C: No influence, or less than one-third of the heartworms died
# greenhouse whitefly = test: whole plant or invertebrate; type: in vivo
# Experimental: Adult greenhouse whiteflies were released onto cucumber plants grown in pots, and allowed to laid eggs overnight. One day after the start of oviposition, the adults were removed, and the plants and eggs were held in an incubation chamber at 25° C. (16-hour period of light, 8-hour dark period). Three days after the end of oviposition, leaf discs 2.0 cm in diameter were cut from the cucumber plants and, after confirming oviposition thereon, the leaf discs were sprayed with solutions of the inventive compounds at a predetermined concentration prepared to 50% acetone/water (containing 0.05% Tween 20). After spraying, the treated leaf discs were held in an incubation chamber at 25° C. (16-hour period of light, 8-hour dark period). Fourteen days after spraying, the numbers of live and dead insects were counted, and the mortality was calculated from the following formula. This was a two-replication test. Mortality (%)=[(number of oviposited eggs−number of live insects)/number of oviposited eggs]×100
# common cutworm = test: whole plant or invertebrate; type: in vivo; details: for Insecticidal effects (mortality), common cutworm third-instar larvae: foliar application
# Experimental: (§2) Leaf discs 5.0 cm in diameter were cut from cabbage plants grown in pots, and these were sprayed with solutions of the inventive compounds at a predetermined concentration prepared to 50% acetone/water (containing 0.05% Tween 20). The treated leaf discs were air dried, following which third-instar larvae were released onto the discs. The leaf discs and larvae were then held in an incubation chamber at 25° C. (16-hour period of light, 8-hour dark period). Three days after released, the numbers of live and dead insects were counted, and the mortality was calculated from the following formula. This was a two-replication test. Mortality (%)=[number of dead insects/(number of live insects+number of dead insects)]×100
# cotton aphid = test: whole plant or invertebrate; type: in vivo; details: Aphis gossypii, foliar
# Experimental: as §2, with “2.0” for “5.0”, “cucumber” for “cabbage”, “first-instar” for “third-instar”
# rice leaf bug = test: whole plant or invertebrate; type: in vivo; details: foliar, 72 h
# Experimental: The treated seedlings were air-dried, then each was placed in a glass cylinder and two second-instar rice leaf bug larvae were released within the same glass cylinder. Following release of the insects, the tube was capped and held in an incubation chamber at 25° C. (16-hour period of light, 8-hour dark period). […] Three days after released, the numbers of live and dead insects were counted, and the mortality was calculated from the following formula. Mortality (%)=[number of dead insects/(number of live insects+number of dead insects)]×100
# small brown planthopper [3] = test: whole plant or invertebrate; type: in vivo; details: Laodelphax striatellus, 72 h
# Experimental: (§3) Rice seedlings grown in pots were subjected to soil drenching treatment with solutions of the inventive compounds at a predetermined concentration prepared to 10% acetone/water. Three days following treatment, ten second-instar small brown planthopper larvae were released onto each seedling. The treated seedlings and larvae were then held in an incubation chamber at 25° C. (16-hour period of light, 8-hour dark period). Three days after released, the numbers of live and dead insects were counted, and the mortality was calculated from the following formula. The test was carried out as two replications. Mortality (%)=[number of dead insects/(number of live insects+number of dead insects)]×100
# small brown planthopper [4] = test: whole plant or invertebrate; type: in vivo; details: Laodelphax striatellus, foliar
# Experimental: as §1, with “Three” for “Four”
# diamondback moth = test: whole plant or invertebrate; type: in vivo; details: Plutella xylostella, foliar
# Experimental: as §2, with “second-instar” for “third-instar”
# western flower thrips = test: whole plant or invertebrate; type: in vivo; details: Frankliniella occidentalis, foliar
# Experimental: as §2, with “2.8” for “5.0”, “bean” for “cabbage”, “first-instar” for “third-instar”
# small brown planthopper [5] = test: whole plant or invertebrate; type: in vivo; details: Laodelphax striatellus, in Triticum aestivum, 96 h
# Experimental: as §3, with “Wheat seedling roots 48 hours after sowing” for “Rice seedlings grown in pots”, “treated” for “subjected to soil drenching treatment”, “After allowing the roots to absorb the chemical for 72 hours,” for “Three days following treatment,”, “Four” for “Three”
# [6] = tested on: small brown planthopper having a low susceptibility to insecticides; test: Small brown planthopper control test, pests having a low susceptibility to insecticides (soil drenching); type: in vivo; details: 0.01 mg/seedling soil drenching
# Experimental: as §3, with “days after” for “days following”, “larvae having a low susceptibility to insecticides” for “larvae”, “The” for “The treated”, “and insects” for “and larvae”
# The pests used in this test were insects that had been raised indoors for successive generations over a long period of time (susceptible line), and insects that had been raised indoors for successive generations after being collected in 2006 within Kumamoto Prefecture (field-collected line).
# [7] = read-out: Insecticidal effects (mortality), cotton aphid first-instar larvae
# [8] = soil, read-out: Insecticidal effects (mortality), small brown planthopper second-instar larvae
# [9] = read-out: Insecticidal effects (mortality), small brown planthopper second-instar larvae
# [10] = read-out: Insecticidal effects (mortality), diamondback moth second-instar larvae
# [11] = read-out: Insecticidal effects (mortality), western flower thrips first-instar larvae
structure (smiles),measurement,setting,value
"CSCCN(C#N)Cc1ccc(Cl)nc1 [Compound 1, 2-chloro-5-[N-cyano-N-(2-methylthioethyl)]aminomethylpyridine]",Mortality,[1],at least 80%
same,Microfilaricidal effect (motility rating),[2],B
"CSC(=S)SCCN(C#N)Cc1ccc(Cl)nc1 [Compound 6, 2-[N-(6-chloro-3-pyridylmethyl)cyanamide] ethyl methylcarbonotrithioate]",Microfilaricidal effect (motility rating),[2],B
CCSC(=S)SCCN(C#N)Cc1ccc(Cl)nc1 [Compound 7],Microfilaricidal effect (motility rating),[2],B
CCCSC(=S)SCCN(C#N)Cc1ccc(Cl)nc1 [Compound 8],Microfilaricidal effect (motility rating),[2],B
O=C(N=c1ccccn1Cc1cnc(Cl)s1)C(F)(F)F [Compound 213],Mortality,"greenhouse whitefly; 20 ppm foliar application, eggs on cucumber leaf discs, 14 days after spraying",at least 80%
"O=C(N=c1ccccn1Cc1ccc(F)nc1)C(F)(F)F [Compound 229, N-[1-((6-fluoropyridin-3-yl)methyl)pyridin-2(1H)-ylidene]-2,2,2-trifluoroacetamide]","Insecticidal effects (mortality), common cutworm third-instar larvae",common cutworm; 100 ppm,30
same,"Insecticidal effects (mortality), common cutworm third-instar larvae",common cutworm; 500 ppm,100
same,mortality at 500 ppm,"common cutworm; foliar, 72 h",≥ 80%
same,mortality at 1.25 ppm,cotton aphid; [7],80%
same,mortality at 5 ppm,cotton aphid; [7],95%
same,mortality at 20 ppm,cotton aphid; [7],100%
same,mortality at 100 ppm,cotton aphid; [7],100%
same,mortality at 500 ppm,cotton aphid; [7],100%
same,mortality at 20 ppm,"cotton aphid; in Cucumis sativus, 72 h",≥ 80%
same,mortality at 100 ppm,"cotton aphid; in Cucumis sativus, 72 h",≥ 80%
same,mortality at 500 ppm,"cotton aphid; in Cucumis sativus, 72 h",≥ 80%
same,mortality at 50 ppm,rice leaf bug,≥ 80%
same,mortality at 100 ppm,"greenhouse whitefly; Cucumis sativus, foliar, 336 h",≥ 80%
same,pest or weed control at 0.005 mg/pot,"small brown planthopper [3]; rice soil drenching, 0.005 mg/pot (Table 13), read-out: Small brown planthopper (rice soil drenching), effect",30%
same,pest or weed control at 0.01 mg/pot,"small brown planthopper [3]; rice soil drenching, 0.01 mg/pot (Table 13), read-out: Small brown planthopper (rice soil drenching), effect",100%
same,pest or weed control at 0.05 mg/pot,"small brown planthopper [3]; rice soil drenching, 0.05 mg/pot (Table 13), read-out: Small brown planthopper (rice soil drenching), effect",100%
same,mortality at 0.05 mg/seedling,small brown planthopper [3]; soil,≥ 80%
same,mortality at 0.005 mg/pot,small brown planthopper [3]; [8],30%
same,mortality at 0.01 mg/pot,small brown planthopper [3]; [8],100%
same,mortality at 0.05 mg/pot,small brown planthopper [3]; [8],100%
same,mortality at 5 ppm,small brown planthopper [4]; [9],95%
same,mortality at 100 ppm,"small brown planthopper [4]; in Oryza sativa, 72 h",≥ 80%
same,mortality at 20 ppm,diamondback moth; [10],40%
same,mortality at 100 ppm,diamondback moth; [10],100%
same,mortality at 500 ppm,diamondback moth; [10],100%
same,mortality at 100 ppm,"diamondback moth; in Brassica oleracea, 72 h",≥ 80%
same,mortality at 500 ppm,"diamondback moth; in Brassica oleracea, 72 h",≥ 80%
same,mortality at 500 ppm,western flower thrips; 72 h,≥ 80%
same,mortality at 100 ppm,western flower thrips; [11],60%
same,mortality at 500 ppm,western flower thrips; [11],100%
same,mortality at 20 µg/seedling,small brown planthopper [5],≥ 80%
same,mortality at 0.063 mg/seedling,small brown planthopper [5]; [9],25%
same,mortality at 0.25 mg/seedling,small brown planthopper [5]; [9],75%
same,mortality at 0.5 mg/seedling,small brown planthopper [5]; [9],100%
same,mortality at 2 mg/seedling,small brown planthopper [5]; [9],100%
N#Cc1nn(-c2c(Cl)cc(C(F)(F)F)cc2Cl)c(N)c1[S+]([O-])C(F)(F)F (stereo not shown) [fipronil],Mortality,[6]; field-collected line (2006 Kumamoto Prefecture),70%
same,Mortality,[6]; susceptible line,100%
